Series [1] can be described thus: Mouse liver microsomal stability, single 30 min time point. The series is classed as in vitro ADME. As to conditions: primary mouse liver microsomes (MLM).
Series [2] in a line: In vivo mouse pharmacokinetics. The following applies: male, CD-1, mouse, plasma.
Series [3] can be described thus: Intrinsic clearance in mouse liver microsomes. The series is classed as in vitro ADME.
A short description of series [4]: Metabolite ID study of 1i in mouse hepatocytes. The series is classed as in vitro ADME. The following applies: 1i incubated 4 h in mouse primary hepatocytes; relative quantity by UV.
A short description of series [5]: Intrinsic clearance in primary mouse hepatocytes. As to conditions: male, CD-1, mouse, cryopreserved primary hepatocytes. The series is classed as in vitro ADME.
Series [6] in a line: Intrinsic clearance in mouse liver S9 fraction. It is filed as in vitro ADME. The following applies: male, CD-1, mouse.
Series [7] concerns mice. The series can be described thus: Dose ranging study of EA tolerability in mice. The series is classed as in vivo, mouse. As to conditions: i.p.

On to `CCC(=O)Nc1cc(Nc2cc(NC3CC3)n3ncc(C#N)c3n2)ccc1C` [Compound 1a], for which the “parent compound remaining after 30 min” value in series [1] worked out at 40%.

On to `CCC(=O)Nc1cc(Nc2cc(NC3CC3)n3ncc(C#N)c3n2)ccc1N1CCC[C@H](NC)C1` [Compound 1i, (S)-N-(5-((3-Cyano-7-(cyclopropylamino)pyrazolo[1,5-a]pyrimidin-5-yl)amino)-2-(3-(methylamino)piperidin-1-yl)phenyl)propionamide], for which, in series [2] (ip, 10 mg/kg), the area under the curve AUC(0-t) is 7010 ng·h/mL, the maximum concentration (Cmax) amounted to 4700 ng/mL and the bioavailability was found to be 100%. In series [2] (iv, 1 mg/kg), the peak level (Cmax) was 1100 ng/mL and the clearance turned out to be 36 mL/min/kg. In addition, in series [3], the CLint scaled was < 24 mL/min/kg. For the same molecule, in series [4], the “rel. (%) of peak (metabolite or parent)” value is given as 53%.

For the molecule `CN[C@H]1CCCN(c2ccc(Nc3cc(NC4CC4)n4ncc(C#N)c4n3)cc2NC(C)=O)C1` [Compound 2c, (S)-N-(5-((3-Cyano-7-(cyclopropylamino)pyrazolo[1,5-a]pyrimidin-5-yl)amino)-2-(3-(methylamino)piperidin-1-yl)phenyl)acetamide], in series [2] (ip, 10 mg/kg), the AUC(0-t) stood at 770 ng·h/mL, the concentration peaked (Cmax) at 670 ng/mL, the bioavailability turned out to be 40% and the half-life was 1.5 h. Also, in series [2] (iv, 1 mg/kg), the exposure AUC(0-t) is 200 ng·h/mL, the highest level (Cmax) was 350 ng/mL, the volume of distribution (Vd) was 5.07 L/kg and the clearance came out at 84 mL/min/kg. Also, the half-life in series [2] (iv, 1 mg/kg) is 1.8 h. Also, in series [3], the CLint scaled was < 24 mL/min/kg. Also, the CLint scaled at 1 μM in series [5] was 132 mL/min/kg. This molecule also returned an intrinsic metabolic clearance (CLint scaled) in series [6] of 1 mL/min/kg.

In series [2] (ip, 10 mg/kg), `CN[C@H]1CCN(c2ccc(Nc3cc(NC4CC4)n4ncc(C#N)c4n3)cc2NC(C)=O)C1` [Compound 2e, (S)-N-(5-((3-Cyano-7-(cyclopropylamino)pyrazolo[1,5-a]pyrimidin-5-yl)amino)-2-(3-(methylamino)pyrrolidin-1-yl)phenyl)acetamide] gave an exposure AUC(0-t) of 1300 ng·h/mL, a Cmax of 1500 ng/mL, a bioavailability of 53% and a half-life of 1.4 h. In series [2] (iv, 1 mg/kg), this molecule yielded an exposure AUC(0-t) of 250 ng·h/mL, a maximum concentration (Cmax) of 810 ng/mL, a Vd of 2.67 L/kg and a clearance of 69 mL/min/kg. The half-life in series [2] (iv, 1 mg/kg) is 1.2 h. Besides, in series [3], the intrinsic clearance (CLint scaled) amounted to 27 mL/min/kg. For the same molecule, the CLint scaled at 1 μM in series [5] is 69 mL/min/kg. In series [6], the CLint scaled was 4 mL/min/kg.

Consider `C=C(CC)C(=O)c1ccc(OCC(=O)O)c(Cl)c1Cl` [EA, ethacrynic acid], for which the “doses that resulted in clinical symptoms including death” value in series [7] is ≥ 100 mg/kg.

These data come from publication PMC10600890 (ACS Omega, 2023).
